Measured values reported in BindingDB's records for patent US20230348467 (Zhejiang Hisun Pharmaceutical, 2023).

Each compound was assayed against T1, Tyrosine-protein phosphatase non-receptor type 11 (Homo sapiens, UniProt Q06124) (assay: Determination of Allosteric Inhibition Activities of the Compounds of the Present Invention on SHP2).
T1 sequence (Q06124 whole entry): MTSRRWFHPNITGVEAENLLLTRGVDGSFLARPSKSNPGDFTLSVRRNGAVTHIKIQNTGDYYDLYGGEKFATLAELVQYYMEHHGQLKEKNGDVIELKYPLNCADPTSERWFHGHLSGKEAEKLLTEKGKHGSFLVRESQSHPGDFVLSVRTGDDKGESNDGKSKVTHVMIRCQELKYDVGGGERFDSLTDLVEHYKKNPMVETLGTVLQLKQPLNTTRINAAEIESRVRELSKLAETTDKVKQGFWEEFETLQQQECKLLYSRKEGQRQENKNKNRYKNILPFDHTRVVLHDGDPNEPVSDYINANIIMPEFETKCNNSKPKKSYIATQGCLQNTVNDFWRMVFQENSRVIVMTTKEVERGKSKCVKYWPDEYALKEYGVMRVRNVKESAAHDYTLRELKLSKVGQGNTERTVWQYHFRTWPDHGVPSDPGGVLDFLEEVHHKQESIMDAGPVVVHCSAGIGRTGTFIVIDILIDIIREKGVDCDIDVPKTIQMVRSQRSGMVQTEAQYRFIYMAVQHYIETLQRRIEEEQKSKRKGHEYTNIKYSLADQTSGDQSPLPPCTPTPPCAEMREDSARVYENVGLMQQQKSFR
Experimental: he experimental process was briefly described as follows: Test compounds were first dissolved in DMSO to prepare storage solutions. […] Then, the compounds to be tested were added in a concentration range of 0.00004-10 uM and incubated at 25 C. for 60 minutes. Then DiFMUP (Thermo, D6567) was added in the reaction and incubated at 25 C. for 30 minutes. After incubation, readings were taken using a microplate reader (BMG) with excitation and emission wavelengths of 340 nm and 450 nm, respectively.

| Compound | IC50 [nM] |
| --- | --- |
| NC(=O)c1nc(N2C3CCC2CC(N)C3)nc2[nH]nc(-c3cccc(Cl)c3Cl)c12 (stereo not drawn) [US20230348467, Compound 17] | 4 |
| NC(=O)c1nc(N2CCC(N)(c3cccc(O)c3)CC2)nc2[nH]nc(-c3cccc(Cl)c3Cl)c12 [US20230348467, Compound 51] | 3 |
| NC1(c2ccccc2)CCN(c2nc(C(=O)O)c3c(-c4cccc(Cl)c4Cl)n[nH]c3n2)CC1 [US20230348467, Compound 10] | 7 |
